Assay results taken from the Bradley open melting point set (2014).
Values joined by “and” are separate entries in the source; they are usually repeats but may differ in a detail not shown here. Equal values may be shown once.

SMILES | melting point
c1ccc(N2CCNCC2)cc1 [1-phenylpiperazine] | 18 °C
COc1cc(N)c(C(C)=O)cc1OC [2'-amino-4',5'-dimethoxyacetophenone] | 106 °C
ON=C(/C(=N\O)c1ccco1)c1ccco1 [2,2'-furil dioxime] | 165 °C
CCOC(O)C(Cl)(Cl)Cl (stereo unspecified) [2,2,2-trichloro-1-ethoxyethanol] | 50 °C
O=C(O)C1CC2=C3C=CCC=C3N=C2CN1 (stereo not drawn) [2,3,4,9-tetrahydro-1H-beta-carboline-3-carboxylic acid] | 296 °C
O=[N+]([O-])c1ccc(Cl)c(Cl)c1Cl [2,3,4-Trichloronitrobenzene] | 55.5 °C
O[C@@H]1OC[C@@H](OCc2ccccc2)[C@@H](OCc2ccccc2)[C@@H]1OCc1ccccc1 [2,3,4-tri-o-benzyl-beta-D-arabinopyranose] | 69 °C
O=Cc1ccc(O)c(O)c1O [2,3,4-trihydroxybenzaldehyde] | 167 °C
O=[N+]([O-])c1c(Cl)c(Cl)cc(Cl)c1Cl [2,3,5,6-tetrachloro-nitrobenzene] | 99.5 °C
O=[N+]([O-])c1c(Cl)c(Cl)cc(Cl)c1Cl [2,3,5,6-tetrachloronitrobenzene] | 100 °C
Oc1c(F)c(F)c(O)c(F)c1F [2,3,5,6-tetrafluorohydroquinone] | 169 °C
Oc1c(F)c(F)cc(F)c1F [2,3,5,6-tetrafluorophenol] | 29 °C
Oc1cccc(Cl)c1Cl [2,3-Dichlorophenol] | 56 °C
c1ccc2cc3cc4ccccc4cc3cc2c1 [2,3-benzanthracene] | 341 °C
CC(=O)C(C)=NO [2,3-butanedione monoxime] | 76 °C
Nc1cccc(Cl)c1Cl [2,3-dichloroaniline] | 24 °C
Oc1cccc(Cl)c1Cl [2,3-dichlorophenol] [listing 1 of 2 here] | 58 °C and 56 °C
Oc1cccc(Cl)c1Cl [2,3-dichlorophenol] [listing 2 of 2 here] | 59 °C
O=C(O)c1cccc(O)c1O [2,3-dihydroxybenzoic acid] | 206 °C
COc1cccc(B(O)O)c1OC [2,3-dimethoxybenzeneboronic acid] | 69 °C
Clc1ccc(C(c2ccccc2Cl)C(Cl)(Cl)Cl)cc1 (stereo unspecified) [2,4'-DDT] | 75 °C

SMILES | melting point
O=C(CBr)c1ccc(Br)cc1 [2,4'-dibromoacetophenone] | 110 °C
COc1ccc(C(=O)c2ccc(OC)cc2OC)cc1 [2,4,4'-trimethoxybenzophenone] | 72 °C
Clc1cc(Cl)c(-c2ccccc2)cc1Cl [2,4,5-Trichlorobiphenyl] | 78 °C
Clc1cc(Cl)c(-c2ccccc2)cc1Cl [2,4,5-trichlorobiphenyl] | 78 °C
Nc1c(Br)cc(Br)cc1Br [2,4,6-Tribromoaniline] | 121 °C
Oc1c(F)cc(F)cc1F [2,4,6-trifluorophenol] | 50 °C
Oc1c(I)cc(I)cc1I [2,4,6-triiodophenol] | 158 °C
O=[N+]([O-])c1ccc(Oc2ccc(Cl)cc2Cl)cc1 [2,4-Dichloro-1-(4-nitrophenoxy)benzene] | 70.5 °C
O=C=N/c1cc(ccc1C)N=C=O [2,4-Diisocyanato-1-methylbenzene] | 20.5 °C
COc1ccc(C=CC(=O)c2ccccc2)c(OC)c1 [2,4-Dimethoxychalcone] | 70 °C
O=[N+]([O-])c1ccc(O)c([N+](=O)[O-])c1 [2,4-Dinitrophenol] | 108 °C
CC(C)(C)c1ccc(O)c(C(C)(C)C)c1 [2,4-di-tert-butylphenol] | 55 °C
Cc1ccc(N)cc1N [2,4-diaminotoluene] | 99 °C
Nc1ccc(Cl)cc1Cl [2,4-dichloroaniline] | 61 °C
ClCc1ccc(Cl)cc1Cl [2,4-dichlorobenzyl chloride] | -3 °C
Oc1ccc(Cl)cc1Cl [2,4-dichlorophenol] | 43 °C and 45 °C and 42.5 °C
N#CCOc1ccc(Cl)cc1Cl [2,4-dichlorophenoxyacetonitrile] | 47 °C
Cc1ccc(N)c(C)c1 [2,4-dimethylaniline] | -15 °C
Nc1ccc([N+](=O)[O-])cc1[N+](=O)[O-] [2,4-dinitroaniline] | 178 °C
O=[N+]([O-])c1ccc(O)c([N+](=O)[O-])c1 [2,4-dinitrophenol] | 108 °C
Cc1ccc(C)c(N)c1 [2,5-Xylidine] | 15.5 °C

Further lines, results first:

melting point | SMILES
77 °C | N#CC1(c2ccccc2)C=Cc2ccccc21 (stereo unspecified) [1-phenyl-1H-indene-1-carbonitrile]
40 °C | CCCCCCCCCCCCCCO [1-tetradecanol]
-23 °C | C=CCCCCCCCCCCC [1-tridecene]
-49 °C | C=CCCCCCCCCC [1-undecene]
203 °C | O=C(O)Cn1cncn1 [1h-1,2,4-triazole-1-acetic acid]
86 °C | CC(=O)c1c(C)c(C)c(C)c(C)c1C [2',3',4',5',6'-pentamethylacetophenone]
100 °C | CCC(=O)c1ccc(O)cc1O [2',4'-dihydroxypropiophenone]
206 °C | CC(=O)c1cc(O)ccc1O [2',5'-dihydroxyacetophenone]
98 °C | CCC(=O)c1cc(O)ccc1O [2',5'-dihydroxypropiophenone]
19 °C | COc1ccc(OC)c(C(C)=O)c1 [2',5'-dimethoxyacetophenone]
111 °C | CC(=O)Nc1ccccc1C [2'-methylacetanilide]
27 °C | CC(=O)c1ccccc1[N+](=O)[O-] [2'-nitroacetophenone]
50 °C | Cc1ccc(C)c(-c2cc(C)ccc2C)c1 [2,2',5,5'-tetramethylbiphenyl]
154 °C | O=[N+]([O-])c1cc([N+](=O)[O-])c(C2CO2)cc1C1CO1 (stereo unspecified) [2,2'-(4,6-dinitrobenzene-1,3-diyl)dioxirane]
138 °C | O=C(c1ccco1)C(O)c1ccco1 (stereo unspecified) [2,2'-furoin]
-36 °C | CC(C)C(C)(C)C(C)(C)C [2,2,3,3,4-pentamethylpentane]
-47 °C | COC(C)(C)OC [2,2-Dimethoxypropane]
128 °C and 126 °C | CC(C)(CO)CO [2,2-dimethyl-1,3-propanediol]
-67 °C | CC(C)(C)CS [2,2-dimethyl-1-propanethiol]
151 °C | O[C@H]1O[C@H](COCc2ccccc2)[C@@H](OCc2ccccc2)[C@H](OCc2ccccc2)[C@H]1OCc1ccccc1 [2,3,4,6-tetra-o-benzyl-alpha-D-glucopyranose]
203 °C | OB(O)c1ccc(F)c(F)c1F [2,3,4-trifluorobenzeneboronic acid]
40 °C | COc1ccc(C=O)c(OC)c1OC [2,3,4-trimethoxybenzaldehyde]
143 °C | OB(O)c1c(F)c(F)cc(F)c1F [2,3,5,6-tetrafluorobenzeneboronic acid]
245 °C | OB(O)c1cc(Cl)cc(Cl)c1Cl [2,3,5-trichlorobenzeneboronic acid]
34 °C | Oc1c(F)ccc(F)c1F [2,3,6-trifluorophenol]
25 °C | CC(O)C(C)O (stereo unspecified) [2,3-butanediol]
195 °C | Nc1cc2ccccc2cc1N [2,3-diaminonaphthalene]

melting point | SMILES
238 °C | OB(O)c1cccc(Cl)c1Cl [2,3-dichlorobenzeneboronic acid]
60 °C | O=S(=O)(Cl)c1cccc(Cl)c1Cl [2,3-dichlorobenzenesulfonyl chloride]
137 °C | OB(O)c1ccnc(Cl)c1Cl [2,3-dichloropyridine-4-boronic acid]
108 °C | O=Cc1cccc(O)c1O [2,3-dihydroxybenzaldehyde]
164 °C | Oc1cc2ccccc2cc1O [2,3-dihydroxynaphthalene]
59 °C | COC1=C(OC)C(=O)C(C)=CC1=O [2,3-dimethoxy-5-methyl-1,4-benzoquinone]
46 °C | COc1cccc(C#N)c1OC [2,3-dimethoxybenzonitrile]
-10 °C | CC(C)C(C)(C)O [2,3-dimethyl-2-butanol]
-106 °C | CC(C)=C/C(C)(C)C [2,4,4-trimethyl-2-pentene]
-43 °C | C=C[Si]1(C)O[Si](C)(C=C)O[Si](C)(C=C)O[Si](C)(C=C)O1 (stereo unspecified) [2,4,6,8-tetramethyl-2,4,6,8-tetravinylcyclotetrasiloxane]
77 °C | Nc1c(Cl)cc(Cl)cc1Cl [2,4,6-trichloroaniline]
121 °C | COc1cc(OC)c(C=O)c(OC)c1 [2,4,6-trimethoxybenzaldehyde] [listing 1 of 2 here]
120 °C | COc1cc(OC)c(C=O)c(OC)c1 [2,4,6-trimethoxybenzaldehyde] [listing 2 of 2 here]
154 °C | Cc1cc(C)c(C(=O)O)c(C)c1 [2,4,6-trimethylbenzoic acid]
27 °C | C=CCOc1nc(OCC=C)nc(OCC=C)n1 [2,4,6-tris(allyloxy)-1,3,5-triazine]
-7.5 °C | Nc1ccc(F)cc1F [2,4-Difluoroaniline]
80 °C | Nc1ccc(Br)cc1Br [2,4-dibromoaniline]
192 °C | NC(=O)c1ccc(Cl)cc1Cl [2,4-dichlorobenzamide]
31 °C | O=[N+]([O-])c1ccc(Cl)cc1Cl [2,4-dichloronitrobenzene]
151 °C | NNC(=O)COc1ccc(Cl)cc1Cl [2,4-dichlorophenoxyacetic acid hydrazide]
146 °C | O=C(c1ccccc1)c1ccc(O)cc1O [2,4-dihydroxybenzophenone]
41 °C | COc1ccc(C(C)=O)c(OC)c1 [2,4-dimethoxyacetophenone]
206 °C | Cc1ccc(B(O)O)c(C)c1 [2,4-dimethylbenzeneboronic acid]
132 °C | O=[N+]([O-])c1cc([N+](=O)[O-])c2ccccc2c1O [2,4-dinitro-1-naphthol]
72 °C | CC1=CC=C(C)C2=C(C)C=CC(C)=C1C2 [2,5,7,10-tetramethylbicyclo[4.4.1]undeca-1,3,5,7,9-pentaene]
74 °C | Cc1cc(Br)c(C)cc1Br [2,5-Dibromo-p-xylene]
70 °C | Cc1cc(Cl)c(C)cc1Cl [2,5-Dichloro-p-xylene]
